{
  "source": "patent US20250049747A1",
  "about": "“USE OF HYPERPOLARIZING AGENTS ALONE AND IN COMBINATION WITH OTHER THERAPEUTIC AGENTS FOR TREATING CANCERS INCLUDING GLIOBLASTOMA” (Trustees of Tufts College, priority 2021, published 2025)",
  "tested_on": "human neuronal cells",
  "experiment": "Live/Dead assay on human neuronal cells",
  "assay_type": "cell-based",
  "settings": "human neurons, 3 day treatment",
  "description": "Human neuronal cells were differentiated from human induced neural stem cells (hiNSCs) (passage 7-10), a generous gift from David Kaplan, as described previously. Briefly, hiNSCs were grown on mouse embryonic fibroblast (MEF) feeder cells until ready to differentiate into neurons. Cells were then seeded on Poly-D-Lysine (A3890401, ThermoFisher) and laminin (L2020, Sigma) coated 96 well plates at a density of 128,000 cells/mL. Cells were differentiated in Neurobasal (12348017, ThermoFisher) media supplemented with 2% B27 (17504044, Gibco), 1% Glutamax, and 1% antibiotic-antimycotic for 7 days with media changes every 2 days. At the end of the 7 days the treatments were added in the differentiation media for 3 days.\nDye Staining Protocols. For the Live/Dead assay, 1 μM Calcein Green AM and 0.5 μM ethidium homodimer-1 (L3224, ThermoFisher) were added to PBS along with 10 μg/mL of Hoechst to make the staining solution. Half the media was removed from the human neuronal cells that had been incubated with treatments for 3 days and replaced with staining solution. […] Cells were then incubated for 15 min at 37° C. and imaged. For resting membrane potential staining, DiBAC4(3) was used. U87 cells were seeded at 10,000 cells per mL on Matrigel coated plates as described above. […] Images were then analyzed using a CellProfiler pipeline. […]",
  "data": [
    {"compound": "COc1ccnc(C[S+]([O-])c2nc3ccc(OC(F)F)cc3[nH]2)c1OC", "note": "(stereo not shown) [Pantoprazole, pantoprazole]", "values": [
      {"measurement": "toxicity by Live/Dead stain compared to control", "result": "slight increase in toxicity that was significant compared to control"}
    ]}
  ]
}
